Test results reported in publication PMC8602401 (Scientific Reports, 2021).
*1 amine or outer side, *2 acyl side, *3 side chain or, on linkers, in order; H or OH if unused. Where a SMILES comes first, the peptide text is derived from it. Side-chain parts run from the residue outwards. [ ]: non-standard residue; d: D form. The star is where a group is joined. γGlu = O=C(O)[C@H](CCC(=O)[*:2])N[*:1]; αMeF = C[C@](N)(Cc1ccccc1)C(=O)O; αMeK = C[C@](N)(CCCCN)C(=O)O; Lauroyl = CCCCCCCCCCCC(=O)*; αMeS = C[C@](N)(CO)C(=O)O; AEEA = NCCOCCOCC(=O)O; Aib = CC(C)(N)C(=O)O

Columns and labels:
[1] = target: T1, GLP-1R (endogenously expressed, EndoC-βH1 cells) (Homo sapiens, UniProt P43220); assay: cAMP accumulation assay in EndoC-βH1 human pancreatic β-cells; type: cell-based; conditions: geometric mean (SEM)
T1 construct: EndoC-βH1 human pancreatic β-cell line, which endogenously expresses GLP-1R; endogenous in cells; host or cells: EndoC-βH1 human pancreatic β-cells
Experimental: All reagents for cAMP assays were obtained from Sigma-Aldrich unless otherwise specified.
Cells were suspended in assay buffer and combined with serially diluted peptides at room temperature for 30 min. cAMP levels were measured using a cAMP dynamic 2 HTRF kit (Cisbio, Codolet, France), following the manufacturer’s two-step protocol, on an EnVision plate reader (PerkinElmer, Waltham, MA, USA). […] The transformed data were analyzed by four-parameter logistic fit to determine EC50 values using GraphPad Prism 6 (GraphPad Software, San Diego, CA, USA).

[2] = Fasted-state simulated intestinal fluid/pancreatin assay; type: in vitro ADME; conditions: FaSSIF with USP pancreatin; 2 h incubation in FaSSIF/USP pancreatin, pre-warmed, agitation; analytical RP-HPLC area under the curve; read-out: peptide remaining intact after incubation in FaSSIF/pancreatin
Experimental: Fresh FaSSIF and USP Pancreatin (FaSSIF/p; Sigma-Aldrich) was prepared according to Galia et al[55]. and used immediately. Peptides were dissolved in pre-warmed FaSSIF before addition of pre-warmed FaSSIF/pancreatin with agitation. Samples were analyzed by analytical RP-HPLC to determine remaining intact peptide by area under the curve.

human plasma protein = assay: EScalate equilibrium shift assay, human plasma; type: in vitro ADME
Experimental: (§1) Binding of peptides to human plasma proteins was determined by the EScalate equilibrium shift assay (Sovicell, Leipzig, Germany), using five dilutions of plasma in phosphate buffered saline and an assumed binding protein concentration of 600 µM. Samples were incubated for 1 h at room temperature then centrifuged to remove the HSA-coated beads. Supernatant samples were analyzed using HPLC (3 µm Phenomenex Aeris Widepore XB-C18 stationary phase) coupled to an electrospray ionization quadrupole time-of-flight mass spectrometer in high resolution accurate mass mode (Agilent, Santa Clara, CA, USA). Unbound fractions were calculated from the concentration-dependent shift in binding equilibrium according to fu=1/1+P/KDPlasma , where P is the concentration of the binding protein in plasma and KDPlasma is the dissociation constant of the compound from plasma proteins in solution.

[3] = EScalate equilibrium shift assay, rat plasma; type: in vitro ADME; conditions: rat; EScalate equilibrium shift, five dilutions of plasma in PBS, 1 h at room temperature, HPLC-QTOF MS; read-out: Fraction unbound peptide (%), rat
rat plasma protein = assay: EScalate equilibrium shift assay, rat plasma; type: in vitro ADME; conditions: EScalate equilibrium shift assay
[4] = EScalate equilibrium shift assay, dog plasma; type: in vitro ADME; conditions: dog; EScalate equilibrium shift, five dilutions of plasma in PBS, 1 h at room temperature, HPLC-QTOF MS; read-out: Fraction unbound peptide (%), dog
dog plasma protein = assay: EScalate equilibrium shift assay, dog plasma; type: in vitro ADME; conditions: EScalate equilibrium shift assay
[5] = EScalate equilibrium shift assay, monkey plasma; type: in vitro ADME; conditions: monkey; EScalate equilibrium shift, five dilutions of plasma in PBS, 1 h at room temperature, HPLC-QTOF MS; read-out: Fraction unbound peptide (%), monkey
Experimental: [The procedure below names another species; the source lists this species under the same test.] as §1

monkey plasma protein = assay: EScalate equilibrium shift assay, monkey plasma; type: in vitro ADME; conditions: EScalate equilibrium shift assay
Experimental: [The procedure below names another species; the source lists this species under the same test.] as §1

[6] = system: diet-induced obese (DIO) mouse model; assay: Body weight, blood glucose and plasma insulin in diet-induced obese mouse model; type: in vivo; conditions: DIO mice
Experimental: Male 20-week-old C57Bl/6 J mice were single-housed for approximately 14 weeks with ad libitum access to water and 60% high-fat diet (D12492, Research Diets). Mice were randomized into groups of 12 mice per group on baseline body weight, 6 h fasting glucose and 6 h fasting insulin. Over 21 days, mice received daily subcutaneous injections of 10 nmol/kg of test peptides or placebo (50 mM Tris–HCl, 150 mM mannitol, 0.02% polysorbate 80; pH 8.0). Body weight was measured daily and fasting glucose and insulin levels were measured on day 14 following a 6-h fast. Blood was collected via tail-snip and glucose was measured with an Ascensia Breeze 2 glucometer (Bayer, Mishawaka, IN, USA). Insulin was measured in plasma using a Meso Scale rat/insulin kit (Meso Scale Discovery, Rockville, MD, USA).

db/db mice = assay: Dose-response study in diabetic db/db mouse model; type: in vivo; conditions: once-daily subcutaneous for 28 days, n = 9 per group
Experimental: Male 7-week-old db/db mice (Charles River, Bristol, UK) were group-housed with ad libitum access to standard chow and water. Mice were randomized to groups of nine mice per group on baseline body weight, HbA1C and 4-h fasting glucose (assessed in tail bleed samples using a Cobas c-111 analyzer [Roche Diagnostics, Indianapolis, IN, USA] and Nova StatStrip Xpress glucometer [DSI, St. Paul, MN, USA]). Insulin was measured in plasma from tail bleeds using a Meso Scale kit. Over 28 days, mice received daily subcutaneous doses of test peptides or placebo (50 mM Tris–HCl, 150 mM mannitol, 0.02% polysorbate 80; pH 8.0).

HFHF fed dogs = assay: Dog model of obesity and insulin resistance (HFHF fed dogs), oral tablets; type: in vivo; conditions: for plasma glucose excursions after oral glucose challenge: 10–40 min after glucose, P < 0.05, n = 7–11 per group
Experimental: For the single-dose study, dogs were randomized on baseline glucose levels to receive MEDI7219 1 mg or 10 mg or placebo tablets in the morning following an overnight fast (7–11 dogs per group). Ninety minutes after tablet administration, dogs received an oral glucose bolus (200 mg/mL at a 5 mL/kg volume calculated on body weight prior to HFHF feeding), and blood glucose (blood collected via peripheral vein) was measured with an AlphaTRAK glucometer system (Zoetis, Parsippany, NJ, USA) at –90, 0, 10, 20, 30, 40, 50, 60, 75, 90, 120, 180 and 240 min after glucose administration. Approximately 12 weeks later, dogs entered the multiple-dose study and received either MEDI7219 10 mg (n = 12) or placebo tablets (n = 6) once daily for 14 days. Dogs received two cups of HFHF canine diet per day, with feeding 3 h postdose during the 14-day study. Dogs had access to water ad libitum throughout the study. Food intake and body weight were monitored daily. On day 14, after overnight fasting, dogs received their final dose followed by an oral glucose and acetaminophen bolus 90 min after administration. Blood glucose was measured as described previously, and plasma acetaminophen levels were measured by LC/MS method at the same time points.

[7] = 10 nmol/kg daily subcutaneous, day 14, n = 12 per group

T1 sequence (P43220 24-463): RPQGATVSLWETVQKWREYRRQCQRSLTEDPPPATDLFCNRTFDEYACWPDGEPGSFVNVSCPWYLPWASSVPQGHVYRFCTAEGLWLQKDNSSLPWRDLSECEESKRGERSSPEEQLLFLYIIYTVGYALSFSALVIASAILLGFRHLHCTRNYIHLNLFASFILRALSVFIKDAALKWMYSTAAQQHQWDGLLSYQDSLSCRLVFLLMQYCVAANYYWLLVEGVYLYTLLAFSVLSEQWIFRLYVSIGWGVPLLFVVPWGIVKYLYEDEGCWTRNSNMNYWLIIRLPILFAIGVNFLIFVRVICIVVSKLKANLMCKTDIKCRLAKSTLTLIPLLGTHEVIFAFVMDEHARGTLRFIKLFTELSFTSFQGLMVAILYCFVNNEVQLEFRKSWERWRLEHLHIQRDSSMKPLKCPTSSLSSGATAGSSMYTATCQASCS

CCCCCCCCCCCC(=O)N[C@@H](CCC(=O)NCCOCCOCC(=O)NCCOCCOCC(=O)NCCCC[C@H](NC(=O)[C@H](C)NC(=O)[C@@H](NC(=O)[C@](C)(Cc1ccccc1)NC(=O)[C@H](CCC(=O)O)NC(=O)[C@](C)(CCCCN)NC(=O)[C@H](C)NC(=O)[C@H](C)NC(=O)[C@H](CCC(=O)O)NC(=O)CNC(=O)[C@H](CCC(=O)O)NC(=O)[C@H](CC(C)C)NC(=O)[C@H](CCCCNC(=O)COCCOCCNC(=O)COCCOCCNC(=O)CC[C@H](NC(=O)CCCCCCCCCCC)C(=O)O)NC(=O)[C@H](CO)NC(=O)[C@](C)(CO)NC(=O)[C@@H](NC(=O)[C@H](CC(=O)O)NC(=O)[C@H](CO)NC(=O)[C@@H](NC(=O)[C@](C)(Cc1ccccc1)NC(=O)[C@H](CO)NC(=O)CNC(=O)[C@H](CCC(=O)O)NC(=O)C(C)(C)NC(=O)[C@@H](N)Cc1c[nH]cn1)[C@@H](C)O)C(C)C)[C@@H](C)CC)C(=O)N[C@H](C(=O)N[C@H](C(=O)N[C@@H](CCC(=O)O)C(=O)NCC(=O)NCC(N)=O)C(C)C)C(C)C)C(=O)O [MEDI7219] (H-H[Aib]EGS[αMeF]TSDV[αMeS]SK([AEEA-AEEA-γGlu-Lauroyl])LEGEAA[αMeK]E[αMeF]IAK([AEEA-AEEA-γGlu-Lauroyl])VVEGG-NH2)
EC50 ([1]; 0.1% BSA, 30 min at room temperature, HTRF cAMP, n ≥ 3 independent experiments): 1.36 nM
Human EndoC-βH1 cAMP 0.1% BSA Effect at max. concentration ([1]; % activation, 80 nM native GLP-1 defines maximum effect): 97.5 (7.1) %
remaining at 2 h [2]: > 60%
peptide bound to plasma proteins, human (human plasma protein; EScalate equilibrium shift assay): over 97%
Fraction unbound peptide (%), human (human plasma protein; EScalate equilibrium shift, HSA-coated beads, five dilutions of plasma in PBS, 1 h at room temperature, HPLC-QTOF MS): 1.75%
fraction unbound at 1 h [3]: 0.006
peptide bound to plasma proteins, rat (rat plasma protein): over 97%
fraction unbound at 1 h [4]: 0.0176
peptide bound to plasma proteins, dog (dog plasma protein): over 97%
fraction unbound at 1 h [5]: 0.025
peptide bound to plasma proteins, monkey (monkey plasma protein): over 97%
Body weight change (%) ([6]; 10 nmol/kg daily subcutaneous over 21 days, n = 12 per group, Fig. 3b): −17.0%
body weight reduction after 21 days ([6]; 10 nmol/kg daily subcutaneous, 21 days, n = 12 per group): 17.0%
6-h fasting blood glucose – day 14 [6, 7]: 133.0 mg/dL
6-h fasting plasma insulin – day 14 [6, 7]: 0.74 ng/mL
HbA1C levels (db/db mice; P < 0.001 versus placebo for doses 1–30 nmol/kg): dose-dependently reduced HbA1C levels
blood glucose levels over 28 days (db/db mice; significantly lower than placebo at 3–30 nmol/kg (P < 0.001)): dose-dependently reduced glucose levels
body weight change over 14 days (HFHF fed dogs; once-daily 10 mg oral tablets, 14 days, placebo + 0.71%, P < 0.05, n = 12): –4.86%
glucose excursions in oral glucose tolerance test, day 14 (HFHF fed dogs; once-daily 10 mg oral tablets, fasted, postdose day 14, versus placebo, P < 0.01): significant improvements in glucose excursions
peak plasma acetaminophen concentration (gastric emptying), day 14 (HFHF fed dogs; once-daily 10 mg oral tablets, oral acetaminophen with glucose bolus, versus placebo): significantly reduced at 20–40 min (P < 0.05) and delayed
cumulative food intake over 14 days (HFHF fed dogs; once-daily 10 mg oral tablets, versus placebo, P < 0.05): significantly decreased cumulative food intake
plasma glucose excursions after oral glucose challenge (HFHF fed dogs; single dose 1 mg oral tablet, versus placebo): statistically significantly improved
plasma glucose excursions after oral glucose challenge (HFHF fed dogs; single dose 10 mg oral tablet, versus placebo): statistically significantly improved
